Laboratory results published in article PMC6656724 (Communications Biology, 2019).
Where “and” joins values, the source holds several entries; their conditions need not be identical. Identical values can stand only once.

Assays:
[1] = test system: KMO activity in the striatum; test: De novo 3-HK synthesis after intrastriatal [5-3H]-kynurenine; type: in vivo, Sprague–Dawley rats
[2] = molecular target: T1, Pseudomonas fluorescens KMO (PfKMO) (Pseudomonas fluorescens, UniProt Q84HF5, C252S/C461S); test: biochemical
T1 construct: made in house; host or cells: E. coli BL21 (DE3)
T1 sequence (Q84HF5 whole entry C252S/C461S): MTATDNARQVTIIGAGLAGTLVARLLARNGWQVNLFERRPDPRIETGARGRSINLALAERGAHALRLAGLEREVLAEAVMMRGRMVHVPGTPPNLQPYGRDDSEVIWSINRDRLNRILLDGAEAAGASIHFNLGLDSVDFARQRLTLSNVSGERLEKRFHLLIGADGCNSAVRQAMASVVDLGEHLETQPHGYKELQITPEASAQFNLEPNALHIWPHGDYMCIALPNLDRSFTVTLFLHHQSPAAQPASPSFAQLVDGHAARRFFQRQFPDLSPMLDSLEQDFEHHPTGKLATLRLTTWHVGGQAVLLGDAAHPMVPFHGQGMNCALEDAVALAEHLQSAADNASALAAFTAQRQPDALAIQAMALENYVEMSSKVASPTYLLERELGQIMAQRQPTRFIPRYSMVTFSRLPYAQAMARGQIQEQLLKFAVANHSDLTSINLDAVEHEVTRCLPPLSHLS
Description: (§1) A combination of ligand- and structural-based virtual screening approaches (see supporting information for details) was used to identify an initial library of >1000 compounds that may be suitable as potential KMO inhibitors. These compounds were screened for inhibition of Pseudomonas fluorescens KMO (PfKMO) and Homo sapiens KMO (HsKMO) using high-throughput assays by monitoring the time-dependent oxidation of NADPH at 340 nm[23].
(§2) Small-molecule compounds were supplied by Biofocus (Charles River Laboratories International Inc., MA, USA), which were identified in silico as potential inhibitors (further details are described in the Supplementary Methods). Initial inhibition assays were performed against Pseudomonas fluorescens KMO (PfKMO) and Homo sapiens KMO (HsKMO) by monitoring the time-dependent absorbance change of NADPH at 340 nm. Purified KMO protein (200 nM) was incubated in 100 µL reaction buffer (20 mM potassium phosphate pH 8.0, 7 mM 2-mercaptoethanol) containing 100 μM NADPH, 100 μM L-Kyn and 20 μM potential inhibitors in 96-well plates. […] The inhibitors identified in the initial screens were validated and re-assayed individually in a 1 cm path-length quartz micro cuvette. […] Suppliers for target inhibitor compounds are listed in Supplementary Table 11.
(§3) Supplementary Figure 1. Examples of inhibition data used to generate IC50 values for selected KMO inhibitors. Fixed concentration of L -KYN (200 µM) and NADPH (100µM) were added into reaction buffer (HsKMO: 20mM potassium phosphate pH 8.0, 7 mM 2-mercaptoethanol; PfKMO: 20 mM HEPES, 10mM sodium acetate, pH 7.5, 2mM DTT). The reaction was initiated by the addition of KMO enzyme (HsKMO: 0.5µM; PfKMO: 0.1 µM). KMO activity was measured in the presence of a range of inhibitor concentrations. […]
(§4) 3.5 Steady-state enzymatic assays.
(§5) Initial screening assays and determination of IC50 values for each potential inhibitor compound were carried out using either 0.1 µM PfKMO or 0.5 µM HsKMO at fixed […]
(§6) (HsKMO: 20 mM potassium phosphate pH 8.0, 7 mM 2-mercaptoethanol; PfKMO:
(§7) 20 mM HEPES, 10 mM sodium acetate, pH 7.5, 2 mM DTT). KMO activity was measured in the presence of a range of inhibitor concentrations by monitoring the […]
consumption of NADPH at 340 nm upon addition of enzyme via a Cary 50 UV-Vis spectrophotometer (Agilent Technologies). Rates were determined from linear regression fits to the initial linear portion of the curves. All measurements were performed in triplicate. The IC50 values for inhibitors were obtained by plotting the percentage inhibition versus the inhibitor concentration and fitting to the Morrison equation16 (equation 1) using Origin 9.0 Software (OriginLab, Northampton, MA). […]

Homo sapiens KMO (HsKMO) = molecular target: T2, Homo sapiens KMO (HsKMO) (Homo sapiens, UniProt O15229); test: KMO inhibition assay, NADPH oxidation at 340 nm (HsKMO); type: biochemical
T2 construct: GST; made in house
T2 sequence (O15229 whole entry): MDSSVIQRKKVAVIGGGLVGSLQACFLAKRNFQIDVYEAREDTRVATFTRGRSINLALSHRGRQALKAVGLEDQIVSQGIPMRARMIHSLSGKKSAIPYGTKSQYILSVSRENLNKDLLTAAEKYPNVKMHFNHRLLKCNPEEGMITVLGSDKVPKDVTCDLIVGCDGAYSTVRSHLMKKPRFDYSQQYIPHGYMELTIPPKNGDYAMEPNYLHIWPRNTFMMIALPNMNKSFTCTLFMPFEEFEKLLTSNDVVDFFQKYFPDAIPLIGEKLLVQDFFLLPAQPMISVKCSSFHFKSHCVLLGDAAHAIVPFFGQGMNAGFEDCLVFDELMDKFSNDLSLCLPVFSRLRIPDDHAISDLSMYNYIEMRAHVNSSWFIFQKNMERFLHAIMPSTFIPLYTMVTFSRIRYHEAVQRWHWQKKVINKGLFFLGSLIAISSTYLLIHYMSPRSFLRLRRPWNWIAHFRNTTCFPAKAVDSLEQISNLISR
Description: as §1, §2
Supplementary Figure 1. Examples of inhibition data used to generate IC50 values for selected KMO inhibitors.
as §3, with “NADPH” for “Supplementary Figure 1. Examples of inhibition data used to generate IC50 values for selected KMO inhibitors. Fixed concentration of L -KYN (200 µM) and NADPH”
as §4, §5, §6, §7
(§8) consumption of NADPH at 340 nm upon addition of enzyme via a Cary 50 UV-Vis spectrophotometer (Agilent Technologies). Rates were determined from linear regression fits to the initial linear portion of the curves. All measurements were performed in triplicate. The IC50 values for inhibitors were obtained by plotting the percentage inhibition versus the inhibitor concentration and fitting to the Morrison equation16 (equation 1) using Origin 9.0 Software (OriginLab, Northampton, MA).
E + I + K!"" − E + I + K!"" ! − 4[E][I] where v0 is the enzyme activity without inhibitor, vi is the enzyme activity with ligand

PfKMO [3] = molecular target: T3, PfKMO (Pseudomonas fluorescens, UniProt Q84HF5, C252S/C461S); test: biochemical
T3 construct: made in house; host or cells: E. coli BL21 (DE3)
T3 sequence (Q84HF5 whole entry C252S/C461S): as the sequence (Q84HF5 whole entry C252S/C461S) above
Procedure: saturating concentrations of the L-KYN and NADPH substrates. Data are plotted […]
as §8
E + I + K!"" − E + I + K!"" ! − 4[E][I] where v0 is the enzyme activity without inhibitor, vi is the enzyme activity with ligand concentration [I], [E] is the enzyme concentration, [I] is the inhibitor concentration, K!"" is the apparent inhibition constant and IC = K!"" + [!] . If K!"" ≫ [!], IC ≈ […]
where Ki is the inhibition constant, [S] is the substrate concentration used in the assay and Km is the Michaelis-Menten constant17. […]
between Ki and Ki apparent values, as the conditions for measuring IC50 are different, Ki values can be used to compare with other reported KMO inhibitors.
Steady-state kinetic parameters for PfKMO were calculated by measuring initial rates […]
the observed rate of turnover (v) versus the varied substrate concentration were fitted to equation 2 using Origin 9.0 Software (OriginLab, Northampton, MA).
A B + K!! B + K!! A + K!!K!! where v is the initial rate of activity, Vmax is the maximum velocitie of the reaction, [A] and [B] are the substrate concentration, K!! and K!! are the Michaelis-Menten constant for different substrate and K!! is the inhibition (binding) constant of substrate A to the free enzyme while forming transitory complexes.18
Product inhibition studies were carried out by measuring reaction rates at varying […]
one substrate and varying concentrations of the other substrate. Inhibition studies with target compounds were carried out by measuring reaction rates at varying inhibitor concentrations at saturating concentrations of one substrate and varying concentrations of the other substrate. […]
were used to distinguish between different types of inhibition. The data were fitted to a straight line defined by the Lineweaver-Burke equation (equation 4), with the y intercept providing 1/Vmax and the x intercept giving -1/Km. […]

PfKMO [4] = molecular target: T3, PfKMO; test: Stopped-flow reduction of flavin cofactor by NADPH; type: biochemical
Procedure: The reduction rate of the flavin cofactor by NADPH was measured using a stopped-flow spectrophotometer (Applied Photophysics Ltd), which was housed in an anaerobic glovebox (Belle Technology). […] The reduction of the flavin was monitored by the decrease in the absorbance of the flavin at 450 nm and transients were fitted to either double or triple exponentials.
Supplementary Figure 13. Reduction of flavin cofactor by NADPH in the presence and absence of ligands. Anaerobic mixtures of 10 µM PfKMO with or without ligand were mixed against anaerobic 2 mM NADPH on a stopped-flow spectrophotometer at 25℃. a, 10 µM PfKMO mixed with 2 mM NADPH; b, 10 µM

Compound	Reduction of [3H]-3-HK ([1]; rat striatum, 50 mg/kg i.v., 1 h)	Percentage of [5-3H]-KYN that is metabolized into [3H]-3-HK ([1]; striatum of awake rats, 1 h after 50 mg/kg i.v., single rats)	IC50 [2]	IC50 (Homo sapiens KMO (HsKMO))	Ki (PfKMO [3])	Mechanism of inhibition with respect to L-KYN (PfKMO [3]; PfKMO)	Mechanism of inhibition with respect to NADPH (PfKMO [3]; PfKMO)	Reduction rate of flavin cofactor (PfKMO [4]; PfKMO with saturating ligand, 2 mM NADPH, 25 °C, anaerobic)	Stimulation of KMO reduction by NADPH (PfKMO [4]; rapid mixing stopped-flow assays)
COc1ccc(S(=O)(=O)Nc2nc(-c3cccc([N+](=O)[O-])c3)cs2)cc1OC [Ro 61-8048]	no reduction	2.76% and 5.1% and 4.48% and 5.65% and 2.31% and 2.1%							
O=C(O)c1ccc(-c2cccc(Cl)c2Cl)o1 [compound 9, 5-(2,3-dichlorophenyl) furan-2-carboxylic acid]			4.3 ± 0.2 µM	39.6 µM	0.15 ± 0.01 µM	competitive inhibitor	competitive inhibitor	0.03 ± 0.001 s⁻¹	do not stimulate
